According to paper PMC7724566, “Prospects for Clinical Development of Stat5 Inhibitor IST5-002: High Transcriptomic Specificity in Prostate Cancer and Low Toxicity In Vivo” (Cancers, 2020):

Key:
Assay in all cases: Kinase Seeker luminescence cell-free assay
Assay type in all cases: binding
FYN = target: T1, FYN (Homo sapiens, UniProt P06241); details: percent activity of kinase after exposure to IST5 1 µM
T1 construct: purchased Reaction Biology (JAK1/2/3, TYK2); Luceome Biotechnologies KinaseSeeker (others)
Method: (§1) For Jak1, Jak2, Jak3 and Tyk2, a radiometric filtration binding assay was conducted by Reaction Biologicals (Malvern, PA, USA) (Table 1). This radiometric assay is a cell-free assay which is based on conventional filter-binding assays, directly measuring kinase catalytic activity toward a specific substrate. For evaluation of the activity of the other kinases, the Kinase Seeker Technology was utilized (Luceome Biotechnologies, Tucson, AZ, USA), which is a luminescence-based cell-free assay. In this assay, the reassembly of luciferase fragments is mediated by the interaction of a kinase with an active site-dependent probe. The competitive displacement of the probe by an inhibitor is measured by a change in luminescence signal. Percent activity of each kinase after exposure to IST5 (1 µM) is presented.

AKT2 = target: T2, AKT2 (Homo sapiens, UniProt P31751); details: percent activity of kinase after exposure to IST5 1 µM
T2 construct: purchased Reaction Biology (JAK1/2/3, TYK2); Luceome Biotechnologies KinaseSeeker (others)
Method: as §1

ITK = target: T3, ITK (Homo sapiens, UniProt Q08881); details: percent activity of kinase after exposure to IST5 1 µM
T3 construct: purchased Reaction Biology (JAK1/2/3, TYK2); Luceome Biotechnologies KinaseSeeker (others)
Method: as §1

DDR2 = target: T4, DDR2 (Homo sapiens, UniProt Q16832); details: percent activity of kinase after exposure to IST5 1 µM
T4 construct: purchased Reaction Biology (JAK1/2/3, TYK2); Luceome Biotechnologies KinaseSeeker (others)
Method: as §1

FGFR2 = target: T5, FGFR2 (Homo sapiens, UniProt P21802); details: percent activity of kinase after exposure to IST5 1 µM
T5 construct: purchased Reaction Biology (JAK1/2/3, TYK2); Luceome Biotechnologies KinaseSeeker (others)
T5 sequence (P21802 22-821): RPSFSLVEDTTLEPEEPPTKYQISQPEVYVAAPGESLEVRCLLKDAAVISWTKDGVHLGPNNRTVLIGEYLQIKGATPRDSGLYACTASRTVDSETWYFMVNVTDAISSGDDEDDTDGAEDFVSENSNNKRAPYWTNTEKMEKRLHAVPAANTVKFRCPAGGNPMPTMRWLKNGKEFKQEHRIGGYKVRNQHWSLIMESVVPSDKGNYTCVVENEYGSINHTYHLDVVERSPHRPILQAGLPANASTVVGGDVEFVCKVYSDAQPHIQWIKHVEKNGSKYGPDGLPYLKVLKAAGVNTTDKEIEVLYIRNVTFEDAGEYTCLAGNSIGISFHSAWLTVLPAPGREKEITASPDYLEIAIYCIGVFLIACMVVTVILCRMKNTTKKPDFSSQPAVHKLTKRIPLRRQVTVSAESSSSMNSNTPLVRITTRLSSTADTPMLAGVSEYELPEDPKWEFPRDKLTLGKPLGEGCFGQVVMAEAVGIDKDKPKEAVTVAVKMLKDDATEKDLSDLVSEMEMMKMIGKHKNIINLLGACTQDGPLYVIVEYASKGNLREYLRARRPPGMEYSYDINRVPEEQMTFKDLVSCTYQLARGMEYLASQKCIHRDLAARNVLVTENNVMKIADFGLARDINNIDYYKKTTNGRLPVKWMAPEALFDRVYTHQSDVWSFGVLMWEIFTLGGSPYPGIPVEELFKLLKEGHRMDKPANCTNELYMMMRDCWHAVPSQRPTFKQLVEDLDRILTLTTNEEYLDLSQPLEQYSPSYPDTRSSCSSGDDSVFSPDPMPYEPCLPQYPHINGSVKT
Method: as §1

p38g = target: T6, p38g (Homo sapiens, UniProt P53778); details: percent activity of kinase after exposure to IST5 1 µM
T6 construct: purchased Reaction Biology (JAK1/2/3, TYK2); Luceome Biotechnologies KinaseSeeker (others)
T6 sequence (P53778 whole entry): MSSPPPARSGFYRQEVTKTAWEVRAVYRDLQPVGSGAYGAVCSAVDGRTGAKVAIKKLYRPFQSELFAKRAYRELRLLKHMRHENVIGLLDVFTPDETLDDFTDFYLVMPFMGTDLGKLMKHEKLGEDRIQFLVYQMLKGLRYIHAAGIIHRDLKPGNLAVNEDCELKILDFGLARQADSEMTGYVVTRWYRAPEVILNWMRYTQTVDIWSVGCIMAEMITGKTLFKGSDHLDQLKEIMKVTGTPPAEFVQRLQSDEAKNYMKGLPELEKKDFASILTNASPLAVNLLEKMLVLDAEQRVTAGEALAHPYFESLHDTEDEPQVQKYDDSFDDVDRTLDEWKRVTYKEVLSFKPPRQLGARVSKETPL
Method: as §1

IKKe = target: T7, IKKe (Homo sapiens, UniProt Q14164); details: percent activity of kinase after exposure to IST5 1 µM
T7 construct: purchased Reaction Biology (JAK1/2/3, TYK2); Luceome Biotechnologies KinaseSeeker (others)
Method: as §1

TRKB = target: T8, TRKB (Homo sapiens, UniProt Q16620)
T8 construct: purchased Reaction Biology (JAK1/2/3, TYK2); Luceome Biotechnologies KinaseSeeker (others)
T8 sequence (Q16620 32-822): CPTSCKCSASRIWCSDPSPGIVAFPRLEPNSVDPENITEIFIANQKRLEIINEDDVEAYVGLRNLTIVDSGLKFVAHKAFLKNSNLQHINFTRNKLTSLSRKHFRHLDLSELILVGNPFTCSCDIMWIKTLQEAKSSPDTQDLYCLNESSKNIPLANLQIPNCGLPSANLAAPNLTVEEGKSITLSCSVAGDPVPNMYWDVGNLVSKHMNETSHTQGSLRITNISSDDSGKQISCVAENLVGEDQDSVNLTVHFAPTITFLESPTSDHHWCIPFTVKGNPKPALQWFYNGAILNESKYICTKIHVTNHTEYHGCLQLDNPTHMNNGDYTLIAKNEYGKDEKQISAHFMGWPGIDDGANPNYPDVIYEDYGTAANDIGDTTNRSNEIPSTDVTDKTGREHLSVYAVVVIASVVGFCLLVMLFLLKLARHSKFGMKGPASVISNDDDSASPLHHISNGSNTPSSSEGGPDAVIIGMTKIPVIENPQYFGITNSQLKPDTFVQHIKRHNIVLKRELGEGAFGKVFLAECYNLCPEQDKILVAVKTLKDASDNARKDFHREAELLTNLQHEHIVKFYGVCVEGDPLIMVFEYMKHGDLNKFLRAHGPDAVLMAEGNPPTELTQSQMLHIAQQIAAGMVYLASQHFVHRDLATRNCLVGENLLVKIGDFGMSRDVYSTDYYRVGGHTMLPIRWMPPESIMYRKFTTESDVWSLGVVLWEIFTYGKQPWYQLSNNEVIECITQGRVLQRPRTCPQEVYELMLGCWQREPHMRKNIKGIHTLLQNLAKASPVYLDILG
Method: as §1

PLK4 = target: T9, PLK4 (Homo sapiens, UniProt O00444); details: percent activity of kinase after exposure to IST5 1 µM
T9 construct: purchased Reaction Biology (JAK1/2/3, TYK2); Luceome Biotechnologies KinaseSeeker (others)
T9 sequence (O00444 whole entry): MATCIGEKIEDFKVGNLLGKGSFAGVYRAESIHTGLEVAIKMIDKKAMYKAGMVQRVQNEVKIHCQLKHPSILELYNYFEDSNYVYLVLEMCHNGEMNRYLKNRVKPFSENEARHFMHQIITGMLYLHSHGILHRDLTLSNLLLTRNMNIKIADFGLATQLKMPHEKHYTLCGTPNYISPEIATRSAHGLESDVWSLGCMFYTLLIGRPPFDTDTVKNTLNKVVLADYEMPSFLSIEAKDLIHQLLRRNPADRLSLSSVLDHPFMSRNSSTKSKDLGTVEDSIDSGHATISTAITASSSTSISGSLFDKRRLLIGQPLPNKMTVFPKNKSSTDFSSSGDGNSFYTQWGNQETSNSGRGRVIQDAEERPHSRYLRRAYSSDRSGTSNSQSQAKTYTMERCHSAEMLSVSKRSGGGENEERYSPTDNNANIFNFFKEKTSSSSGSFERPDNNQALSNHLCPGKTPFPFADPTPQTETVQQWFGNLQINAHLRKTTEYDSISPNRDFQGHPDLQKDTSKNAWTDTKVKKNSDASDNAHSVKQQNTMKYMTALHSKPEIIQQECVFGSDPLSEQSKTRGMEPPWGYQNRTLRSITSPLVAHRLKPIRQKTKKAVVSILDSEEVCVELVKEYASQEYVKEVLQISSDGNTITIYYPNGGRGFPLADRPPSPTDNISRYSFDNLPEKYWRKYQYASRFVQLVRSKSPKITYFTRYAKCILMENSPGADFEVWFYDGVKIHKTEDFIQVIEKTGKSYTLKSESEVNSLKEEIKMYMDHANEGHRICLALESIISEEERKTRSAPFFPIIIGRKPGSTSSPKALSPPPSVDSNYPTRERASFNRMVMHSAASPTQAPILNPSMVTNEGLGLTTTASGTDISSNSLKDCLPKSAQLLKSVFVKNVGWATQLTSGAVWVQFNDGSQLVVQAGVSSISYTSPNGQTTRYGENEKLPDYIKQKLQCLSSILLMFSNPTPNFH
Method: as §1

BLK = target: T10, BLK (Homo sapiens, UniProt P51451); details: percent activity of kinase after exposure to IST5 1 µM
T10 construct: purchased Reaction Biology (JAK1/2/3, TYK2); Luceome Biotechnologies KinaseSeeker (others)
Method: as §1

PIM2 = target: T11, PIM2 (Homo sapiens, UniProt Q9P1W9); details: percent activity of kinase after exposure to IST5 1 µM
T11 construct: purchased Reaction Biology (JAK1/2/3, TYK2); Luceome Biotechnologies KinaseSeeker (others)
Method: as §1

MLK3 = target: T12, MLK3 (Homo sapiens, UniProt Q16584); details: percent activity of kinase after exposure to IST5 1 µM
T12 construct: purchased Reaction Biology (JAK1/2/3, TYK2); Luceome Biotechnologies KinaseSeeker (others)
Method: as §1

PAK1 = target: T13, PAK1 (Homo sapiens, UniProt Q13153); details: percent activity of kinase after exposure to IST5 1 µM
T13 construct: purchased Reaction Biology (JAK1/2/3, TYK2); Luceome Biotechnologies KinaseSeeker (others)
T13 sequence (Q13153 whole entry): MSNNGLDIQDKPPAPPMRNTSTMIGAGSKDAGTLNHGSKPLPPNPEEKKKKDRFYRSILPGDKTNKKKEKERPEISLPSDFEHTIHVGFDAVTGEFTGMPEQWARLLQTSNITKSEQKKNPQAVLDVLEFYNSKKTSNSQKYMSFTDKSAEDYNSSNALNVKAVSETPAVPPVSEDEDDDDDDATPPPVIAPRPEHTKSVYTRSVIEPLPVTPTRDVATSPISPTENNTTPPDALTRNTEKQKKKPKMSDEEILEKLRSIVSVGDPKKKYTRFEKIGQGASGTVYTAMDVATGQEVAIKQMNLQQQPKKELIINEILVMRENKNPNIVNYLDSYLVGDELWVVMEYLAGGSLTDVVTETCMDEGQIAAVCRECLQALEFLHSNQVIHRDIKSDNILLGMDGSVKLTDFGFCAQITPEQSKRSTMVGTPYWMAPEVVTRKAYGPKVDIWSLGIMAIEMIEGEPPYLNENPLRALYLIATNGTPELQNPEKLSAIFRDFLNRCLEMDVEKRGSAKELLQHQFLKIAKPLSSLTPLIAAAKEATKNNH
Method: as §1

TNK2 = target: T14, TNK2 (Homo sapiens, UniProt Q07912); details: percent activity of kinase after exposure to IST5 1 µM
T14 construct: purchased Reaction Biology (JAK1/2/3, TYK2); Luceome Biotechnologies KinaseSeeker (others)
Method: as §1

FLT1 = target: T15, FLT1 (Homo sapiens, UniProt P17948); details: percent activity of kinase after exposure to IST5 1 µM
T15 construct: purchased Reaction Biology (JAK1/2/3, TYK2); Luceome Biotechnologies KinaseSeeker (others)
Method: as §1

TIE1 = target: T16, TIE1 (Homo sapiens, UniProt P35590); details: percent activity of kinase after exposure to IST5 1 µM
T16 construct: purchased Reaction Biology (JAK1/2/3, TYK2); Luceome Biotechnologies KinaseSeeker (others)
Method: as §1

ABL1 = target: T17, ABL1 (Homo sapiens, UniProt P00519); details: percent activity of kinase after exposure to IST5 1 µM
T17 construct: purchased Reaction Biology (JAK1/2/3, TYK2); Luceome Biotechnologies KinaseSeeker (others)
Method: as §1

YES1 = target: T18, YES1 (Homo sapiens, UniProt P07947); details: percent activity of kinase after exposure to IST5 1 µM
T18 construct: purchased Reaction Biology (JAK1/2/3, TYK2); Luceome Biotechnologies KinaseSeeker (others)
Method: as §1

MUSK = target: T19, MUSK (Homo sapiens, UniProt O15146); details: percent activity of kinase after exposure to IST5 1 µM
T19 construct: purchased Reaction Biology (JAK1/2/3, TYK2); Luceome Biotechnologies KinaseSeeker (others)
Method: as §1

AURKB = target: T20, AURKB (Homo sapiens, UniProt Q96GD4); details: percent activity of kinase after exposure to IST5 1 µM
T20 construct: purchased Reaction Biology (JAK1/2/3, TYK2); Luceome Biotechnologies KinaseSeeker (others)
Method: as §1

EPHA1 = target: T21, EPHA1 (Homo sapiens, UniProt P21709); details: percent activity of kinase after exposure to IST5 1 µM
T21 construct: purchased Reaction Biology (JAK1/2/3, TYK2); Luceome Biotechnologies KinaseSeeker (others)
Method: as §1

PDGFRB = target: T22, PDGFRB (Homo sapiens, UniProt P09619); details: percent activity of kinase after exposure to IST5 1 µM
T22 construct: purchased Reaction Biology (JAK1/2/3, TYK2); Luceome Biotechnologies KinaseSeeker (others)
T22 sequence (P09619 33-1106): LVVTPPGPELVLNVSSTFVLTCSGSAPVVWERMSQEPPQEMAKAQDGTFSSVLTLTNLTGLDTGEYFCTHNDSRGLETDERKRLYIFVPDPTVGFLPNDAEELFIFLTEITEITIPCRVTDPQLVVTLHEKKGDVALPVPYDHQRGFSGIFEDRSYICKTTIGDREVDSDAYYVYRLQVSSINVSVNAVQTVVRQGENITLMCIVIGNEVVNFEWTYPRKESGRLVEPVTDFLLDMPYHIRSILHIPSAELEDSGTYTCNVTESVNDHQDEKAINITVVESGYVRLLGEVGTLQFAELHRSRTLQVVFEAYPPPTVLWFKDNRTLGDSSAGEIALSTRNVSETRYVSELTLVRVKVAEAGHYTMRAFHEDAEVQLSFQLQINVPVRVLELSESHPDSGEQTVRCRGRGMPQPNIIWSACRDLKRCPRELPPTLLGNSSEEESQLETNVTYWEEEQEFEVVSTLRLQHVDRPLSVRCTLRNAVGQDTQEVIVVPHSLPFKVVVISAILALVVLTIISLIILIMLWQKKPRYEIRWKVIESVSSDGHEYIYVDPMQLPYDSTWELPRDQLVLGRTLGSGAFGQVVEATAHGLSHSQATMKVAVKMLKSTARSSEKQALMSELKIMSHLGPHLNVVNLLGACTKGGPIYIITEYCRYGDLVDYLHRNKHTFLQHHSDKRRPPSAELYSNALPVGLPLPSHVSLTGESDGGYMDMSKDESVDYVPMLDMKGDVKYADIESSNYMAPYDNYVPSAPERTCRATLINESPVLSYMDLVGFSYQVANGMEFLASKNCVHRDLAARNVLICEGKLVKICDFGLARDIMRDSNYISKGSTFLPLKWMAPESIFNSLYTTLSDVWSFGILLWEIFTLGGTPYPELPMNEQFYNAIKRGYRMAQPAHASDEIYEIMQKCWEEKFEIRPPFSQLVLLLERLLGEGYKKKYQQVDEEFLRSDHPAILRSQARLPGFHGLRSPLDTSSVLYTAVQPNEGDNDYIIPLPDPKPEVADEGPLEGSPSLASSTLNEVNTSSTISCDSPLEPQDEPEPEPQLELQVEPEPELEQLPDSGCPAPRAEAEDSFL
Method: as §1

MSK2 = target: T23, MSK2 (Homo sapiens, UniProt O75676); details: percent activity of kinase after exposure to IST5 1 µM
T23 construct: purchased Reaction Biology (JAK1/2/3, TYK2); Luceome Biotechnologies KinaseSeeker (others)
Method: as §1

MLK1 = target: T24, MLK1 (Homo sapiens, UniProt P80192); details: percent activity of kinase after exposure to IST5 1 µM
T24 construct: purchased Reaction Biology (JAK1/2/3, TYK2); Luceome Biotechnologies KinaseSeeker (others)
Method: as §1

MET = target: T25, MET (Homo sapiens, UniProt P08581); details: percent activity of kinase after exposure to IST5 1 µM
T25 construct: purchased Reaction Biology (JAK1/2/3, TYK2); Luceome Biotechnologies KinaseSeeker (others)
Method: as §1

PYK1 = details: percent activity of kinase after exposure to IST5 1 µM
Method: as §1

LYN = target: T26, LYN (Homo sapiens, UniProt P07948); details: percent activity of kinase after exposure to IST5 1 µM
T26 construct: purchased Reaction Biology (JAK1/2/3, TYK2); Luceome Biotechnologies KinaseSeeker (others)
Method: as §1

CAMKK1 = target: T27, CAMKK1 (Homo sapiens, UniProt Q8N5S9); details: percent activity of kinase after exposure to IST5 1 µM
T27 construct: purchased Reaction Biology (JAK1/2/3, TYK2); Luceome Biotechnologies KinaseSeeker (others)
Method: as §1

IGF1R = target: T28, IGF1R (Homo sapiens, UniProt P08069); details: percent activity of kinase after exposure to IST5 1 µM
T28 construct: purchased Reaction Biology (JAK1/2/3, TYK2); Luceome Biotechnologies KinaseSeeker (others)
Method: as §1

AKT3 = target: T29, AKT3 (Homo sapiens, UniProt Q9Y243); details: percent activity of kinase after exposure to IST5 1 µM
T29 construct: purchased Reaction Biology (JAK1/2/3, TYK2); Luceome Biotechnologies KinaseSeeker (others)
Method: as §1

SRC = target: T30, SRC (Homo sapiens, UniProt P12931); details: percent activity of kinase after exposure to IST5 1 µM
T30 construct: purchased Reaction Biology (JAK1/2/3, TYK2); Luceome Biotechnologies KinaseSeeker (others)
Method: as §1

FAK = target: T31, FAK (Homo sapiens, UniProt Q05397); details: percent activity of kinase after exposure to IST5 1 µM
T31 construct: purchased Reaction Biology (JAK1/2/3, TYK2); Luceome Biotechnologies KinaseSeeker (others)
Method: as §1

TRKC = target: T32, TRKC (Homo sapiens, UniProt Q16288); details: percent activity of kinase after exposure to IST5 1 µM
T32 construct: purchased Reaction Biology (JAK1/2/3, TYK2); Luceome Biotechnologies KinaseSeeker (others)
Method: as §1

SLK = target: T33, SLK (Homo sapiens, UniProt Q9H2G2); details: percent activity of kinase after exposure to IST5 1 µM
T33 construct: purchased Reaction Biology (JAK1/2/3, TYK2); Luceome Biotechnologies KinaseSeeker (others)
Method: as §1

PDGFRA = target: T34, PDGFRA (Homo sapiens, UniProt P16234); details: percent activity of kinase after exposure to IST5 1 µM
T34 construct: purchased Reaction Biology (JAK1/2/3, TYK2); Luceome Biotechnologies KinaseSeeker (others)
Method: as §1

TBK1 = target: T35, TBK1 (Homo sapiens, UniProt Q9UHD2); details: percent activity of kinase after exposure to IST5 1 µM
T35 construct: purchased Reaction Biology (JAK1/2/3, TYK2); Luceome Biotechnologies KinaseSeeker (others)
Method: as §1

DDR1 = target: T36, DDR1 (Homo sapiens, UniProt Q08345); details: percent activity of kinase after exposure to IST5 1 µM
T36 construct: purchased Reaction Biology (JAK1/2/3, TYK2); Luceome Biotechnologies KinaseSeeker (others)
Method: as §1

ABL2 = target: T37, ABL2 (Homo sapiens, UniProt P42684); details: percent activity of kinase after exposure to IST5 1 µM
T37 construct: purchased Reaction Biology (JAK1/2/3, TYK2); Luceome Biotechnologies KinaseSeeker (others)
Method: as §1

FLT2/3 = details: percent activity of kinase after exposure to IST5 1 µM
Method: as §1

AXL = target: T38, AXL (Homo sapiens, UniProt P30530); details: percent activity of kinase after exposure to IST5 1 µM
T38 construct: purchased Reaction Biology (JAK1/2/3, TYK2); Luceome Biotechnologies KinaseSeeker (others)
Method: as §1

CAMK1D = target: T39, CAMK1D (Homo sapiens, UniProt Q8IU85); details: percent activity of kinase after exposure to IST5 1 µM
T39 construct: purchased Reaction Biology (JAK1/2/3, TYK2); Luceome Biotechnologies KinaseSeeker (others)
T39 sequence (Q8IU85 whole entry): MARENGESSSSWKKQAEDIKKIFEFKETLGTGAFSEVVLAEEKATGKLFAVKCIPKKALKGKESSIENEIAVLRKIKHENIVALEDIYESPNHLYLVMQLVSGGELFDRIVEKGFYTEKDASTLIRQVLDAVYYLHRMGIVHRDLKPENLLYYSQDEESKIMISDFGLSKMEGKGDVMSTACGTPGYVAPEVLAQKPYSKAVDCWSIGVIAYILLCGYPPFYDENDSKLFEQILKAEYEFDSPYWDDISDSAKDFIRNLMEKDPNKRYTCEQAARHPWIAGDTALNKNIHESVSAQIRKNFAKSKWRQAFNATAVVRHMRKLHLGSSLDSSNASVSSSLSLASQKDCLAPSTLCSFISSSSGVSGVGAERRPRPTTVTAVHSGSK
Method: as §1

SMILES: O=P(O)(O)OCC1OC(n2cnc3c(NCc4ccccc4)ncnc32)C(O)C1O (stereo not drawn) [IST5]
- Activity (FYN): 95.8%
- Activity (AKT2): 94.3%
- Activity (ITK): 100.0%
- Activity (DDR2): 97.4%
- Activity (FGFR2): 85.7%
- Activity (p38g): 100.0%
- Activity (IKKe): 84.8%
- Activity (TRKB; TRKB, percent activity of kinase after exposure to IST5 1 µM): 89.4%
- inhibitory activity on TrkB (TRKB; Table 1): no inhibitory activity
- Activity (PLK4): 85.8%
- Activity (BLK): 100.0%
- Activity (PIM2): 91.8%
- Activity (MLK3): 93.5%
- Activity (PAK1): 98.8%
- Activity (TNK2): 98.3%
- Activity (FLT1): 88.4%
- Activity (TIE1): 100.0%
- Activity (ABL1): 88.3%
- Activity (YES1): 100.0%
- Activity (MUSK): 100.0%
- Activity (AURKB): 96.0%
- Activity (EPHA1): 94.0%
- Activity (PDGFRB): 78.4%
- Activity (MSK2): 90.0%
- Activity (MLK1): 100.0%
- Activity (MET): 100.0%
- Activity (PYK1): 93.4%
- Activity (LYN): 90.4%
- Activity (CAMKK1): 94.2%
- Activity (IGF1R): 100.0%
- Activity (AKT3): 95.8%
- Activity (SRC): 92.1%
- Activity (FAK): 99.0%
- Activity (TRKC): 93.4%
- Activity (SLK): 92.6%
- Activity (PDGFRA): 100.0%
- Activity (TBK1): 92.8%
- Activity (DDR1): 89.3%
- Activity (ABL2): 88.6%
- Activity (FLT2/3): 93.6%
- Activity (AXL): 90.4%
- Activity (CAMK1D): 92.0%
